{"source": "patent US12493025B2", "about": "“Microfluidic device and method of preparing a cell model for disease associated with cancer” (City University of Hong Kong, priority 2020, dated 2025)", "key": {"[1]": {"test_system": "UMUC-3 bladder cancer cells", "assay": "Cancer cell viability in clusters co-cultured with UTI89 (CT and CL models), Calcein-AM/Hoechst; doxorubicin dose-response", "type": "cell-based, human", "conditions": "for IC50: Homo sapiens, UMUC3, MOI 1:1, concentration giving 50% cell viability", "method": "For CT models, bacterial suspension was centrifuged for 10,000 rpm for 5 min, and the supernatant was removed and replaced with MEM-α (10% supplemented with FBS, no added penicillin-streptomycin) at final dilutions at the rate of 500:1, 100:1, and 1:1 (bacteria:cell). After seeding and incubating for 24 h, the UMUC-3 cell clusters in the microchannels were stained using Hoechst dye for 30 minutes at 37° C. before infection. After original media with dye in channels was gently removed, the diluted bacterial suspension was added into 9 channels separately, three channels per concentration. The corresponding control group of the two models was obtained at time points before the introduction of bacteria.\nAs for CL models, bacteria suspended in MEM a and UMUC-3 cells (no added penicillin-streptomycin) were mixed before seeding at the rate of 500:1, 100:1, and 1:1. The device was incubated at 37° C. with 5% CO2 and in situ imaging and analyzing at 1 h, 9 h, and 24 h, respectively. Besides, an isolated channel only with 24 h cultured UMUC-3 was set as a negative control to indicate the beginning of the infection.\nFor fluorescent staining analysis, the nuclear dye Hoechst (Life Technologies) and Calcein-AM (Invitrogen) were added into cell suspension in the channel at dilution of 1:1000 (v/v). After incubating for 30 minutes at 37° C. for staining, the media was gently removed from each channel, and the device could be imaged via Nikon Ci-L fluorescent microscope directly at 10× magnification. The images processing and cell counting under fluorescent staining were done through ImageJ software. For infection analysis imaging, after incubating for 30 minutes with fluorescent dyes and remove the mixture of dyes and media in the channel, the channels were washed with 1×PBS to remove unbound bacteria and treated with 100 μg/mL gentamicin for 2 h to kill the extracellular bacteria, then the device could be imaged directly. […]"}, "[2]": {"test_system": "UMUC-3 bladder cancer cells", "assay": "In situ immunostaining of CD44 and CD24 after DNase treatment", "type": "cell-based, human", "conditions": "CT model, 9 h after infection", "method": "The infected cell clusters were firstly washed with 1×PBS gently and treated with 100 μg/mL gentamicin for 2 h to kill extracellular bacteria but keep the intracellular ones. Then channels were loaded PBS with antibody dyes at dilution of […] (v/v). After incubating for 30 minutes at room temperature for staining, the PBS was gently removed from each channel, and the stained clusters could be directly observed through a fluorescent microscope.\n(§1) To dissolve the biofilm, 1×DNase (0.01 mg/mL; Sigma-Aldrich) diluted with fresh antibiotic-free culture media were added into channels after 1 h infection, and the device was continually incubated at 37° C. for 8 h. Then downstream in situ analysis was done after removing DNase and washing channels with PBS. The untreated clusters after 9 h infection were set as control."}, "[3]": {"test_system": "UMUC-3 bladder cancer cells", "assay": "Viability of non-infected cancer cells after DNase or Cipro treatment", "type": "cell-based, human", "conditions": "uninfected control; Cipro 24 h"}, "[4]": {"test_system": "UMUC-3 bladder cancer cells", "assay": "Cluster size after DNase treatment of coculture (in situ morphology analysis)", "type": "cell-based, human", "conditions": "0.01 mg/mL DNase, 9 h of infection", "method": "The clusters formed in the microwell after 24 h culture or infection were imaged via an optical microscope by the device put on the objective directly at 40× or 100× magnification. Each channel was shot at three frames at the top, middle and bottom state. The image processing and analysis of cluster size and density were done through ImageJ software.\nas §1"}, "[5]": {"test_system": "uropathogenic E. coli strain UTI89", "assay": "MIC of ciprofloxacin", "type": "cell-based, Escherichia coli"}}, "note": "Where two headings read alike, the source gives them in different places."}
{"compound": "COc1cccc2c1C(=O)c1c(O)c3c(c(O)c1C2=O)C[C@@](O)(C(=O)CO)C[C@@H]3O[C@H]1C[C@H](N)[C@H](O)[C@H](C)O1", "note": "[doxorubicin]", "values": [{"measurement": "IC50", "setting": "[1]; CL model (intratumoral UTI89), read-out: IC50 of doxorubicin on cancer cells with the CL model", "result": 1590, "unit": "nM"}, {"measurement": "IC50", "setting": "[1]; CT model (extratumoral UTI89), read-out: IC50 of doxorubicin on cancer cells with the CT model", "result": 1790, "unit": "nM"}]}
{"compound": "DNase", "values": [{"measurement": "expression intensity of CD24, DNase-treated vs untreated control", "setting": "[2]", "result": "reduced"}, {"measurement": "expression intensity of CD44, DNase-treated vs untreated control", "setting": "[2]", "result": "reduced"}, {"measurement": "cancer cell viability in the CT model after biofilm disruption by DNase", "setting": "[1]; CT model, 9 h infection, more obvious at MOIs 100:1 and 500:1", "result": "increased to a level comparable to that in the CL model"}, {"measurement": "adverse effect on non-infected cancer cells (viability)", "setting": "[3]", "result": "neither ciprofloxacin nor DNase had adverse effect"}, {"measurement": "cluster size in the CL model after DNase treatment", "setting": "[4]; CL model", "result": "slight increase in cluster size"}, {"measurement": "cluster size in the CT model after DNase treatment", "setting": "[4]; CT model", "result": "reverse the effect of cluster size reduction"}]}
{"compound": "O=C(O)c1cn(C2CC2)c2cc(N3CCNCC3)c(F)cc2c1=O", "note": "[ciprofloxacin]", "values": [{"measurement": "MIC", "setting": "[5]; Escherichia coli, as printed in Example 7", "result": 0.025, "unit": "µg/mL"}, {"measurement": "MIC value", "setting": "[5]; as printed in legend of FIG. 14C", "result": 0.025, "unit": "µg/mL"}]}
